Reference: PMC11053683, “Tuning of the Anti-Breast Cancer Activity of Betulinic Acid via Its Conversion to Ionic Liquids” (Pharmaceutics, 2024)
Like-named read-outs stand apart in the source and are kept apart here.

Experiments:
[1] = Estimation of the water solubility (DMSO stock diluted with deionized water until sediment); assay type: physicochemical; parameters: key: “5×”: weak; “10×”: middle; “20×”:good’; “50×”: very good; “100×”: excellent; conditions: 1 mg in 100 μL DMSO, class by dilution factor
Method: The water solubility of betulinic acid and its derivatives was evaluated following the described method. For this purpose, 1 mg of the substance was dissolved in 100 μL of DMSO. The stock solution was diluted with 10 μL potions of deionized water until the sediment was observed. 10 μL portions were added to produce dilutions corresponding to 5 times, 10 times, 20 times, 50 times, and 100 times the original concentration.

[2] = Thermal stability by thermogravimetric analysis (TG); assay type: physicochemical
Method: The test was conducted in the 25–1000 °C temperature range at a heating rate of 10 ° min^−1 under air (flow rate of 25 cm^−3min^−1) and nitrogen (flow rate of 10 cm^−3min^−1). The weight of the samples was 5–7 mg.

MCF-7 cells [3] = test: Colony formation (clonogenic) assay; assay type: cell-based, human; conditions: for effect on MCF-7 colony formation: 2.5–12.5 µM
Method: Clonogenic assays were performed, and surviving fractions were calculated as described by Franken et al.. Briefly, MCF-7 cells were seeded in 6-well plates at a concentration of 500 cells/well and allowed to adhere for 48 h and subsequently treated with 2.5–12.5 µM concentration of BA and selected BA-ILs (Day 1). The BA and BA-ILs were replenished every 4 days. On Day 10, cells were fixed with 10% formalin in phosphate-buffered saline (PBS), pH 7.4 for 30 min at room temperature (RT), washed with PBS and stained with 0.1% Crystal violet solution in ddH2O, 30 min, RT, followed by a final thorough wash in ddH2O. The colonies were then imaged and analyzed with the open-source platform Fiji.

MCF-7 cells [4] = test: Cell morphology analysis by light microscopy; assay type: cell-based, human; conditions: MCF-7, 72 h, concentration close to IC50
Method: The changes in cell morphology after a 72 h treatment with BA and [AAOEt][BA] were observed under an inverted microscope (MEIJI, Japan) with objective 10 (Phase DM, MEIJI, Japan) and camera Optikam B1 Digital (Optika, Ponteranica, Bergamo, Italy).

[5] = parameters: method as in PMID 28273859; conditions: cited from earlier work
[6] = parameters: method as in PMID 28273859; conditions: model of intestinal mucus, compared to known drugs; cited from earlier work
MCF-7 cells [7] = test: MTT assay, cytotoxicity on MCF-7 cells
MCF-7 cells [8] = system: MCF-7 cells
MCF-10A cells = test: MTT assay, cytotoxicity on MCF-10A cells; assay type: cell-based, human; conditions: 72 h
Method: The assay was conducted as described by Mosmann. […] Non-treated cancer cells were used as a control.

Row | Compound | Water Solubility [1] | TDTGmax (maximum decomposition temperature) ([2]; TG, 25–1000 °C, 10 °/min) [°C] | TTGonset (onset of the thermal degradation) [2] [°C] | IC50 (MCF-7 cells [7]; MCF-7, 72 h, MTT) [µM] | other results
1 | C=C(C)[C@@H]1CC[C@]2(C(=O)O)CC[C@]3(C)[C@H](CC[C@@H]4[C@@]5(C)CC[C@H](O)C(C)(C)[C@@H]5CC[C@]43C)[C@@H]12 [BA, Betulinic acid] | weak | 358.7 |  |  | TTGonset (onset of the thermal degradation) ([2]; TG, 25–1000 °C, 10 °/min): 305.7 °C; effect on MCF-7 colony formation (MCF-7 cells [3]): did not inhibit MCF-7 colony formation; changes in cell numbers and morphology (MCF-7 cells [4]): reduction in cell numbers; bioavailability [5]: 2.3%; permeability classification [6]: moderate to poorly permeable; IC50 (MCF-7 cells [7]; Homo sapiens, MCF7, 72 h): 11.5 ± 1.8 µM
2 | C=C(C)C1CCC2(C(=O)O)CCC3(C)C(CCC4C5(C)CCC(O)C(C)(C)C5CCC43C)C12.CCOC(=O)C(C)N (centres unmarked) [[AlaOEt][BA]] | weak | 370.7 | 92.0 | 12.7 ± 4.5 | 
3 | C=C(C)C1CCC2(C(=O)O)CCC3(C)C(CCC4C5(C)CCC(O)C(C)(C)C5CCC43C)C12.CCOC(=O)CC(N)C(=O)OCC (centres unmarked) [[Asp(OEt)2][BA]] | middle | 357.4 | 119.8 | 8.9 ± 2.1 | 
4 | C=C(C)C1CCC2(C(=O)O)CCC3(C)C(CCC4C5(C)CCC(O)C(C)(C)C5CCC43C)C12.CCOC(=O)C(N)CS (centres unmarked) [[CysOEt][BA]] | middle | 359.2 | 150.1 | 9.6 ± 3.8 | 
5 | C=C(C)C1CCC2(C(=O)O)CCC3(C)C(CCC4C5(C)CCC(O)C(C)(C)C5CCC43C)C12.CCOC(=O)C(N)C(C)CC (centres unmarked) [[IleOEt][BA]] | weak | 369.0 | 127.5 | 8.5 ± 1.3 | cytotoxicity / IC50 compared with BA (MCF-7 cells [8]): IC50 values lower than that of BA
6 | C=C(C)C1CCC2(C(=O)O)CCC3(C)C(CCC4C5(C)CCC(O)C(C)(C)C5CCC43C)C12.CCOC(=O)C(N)CC(C)C (centres unmarked) [[LeuOEt][BA]] |  | 359.4 | 114.9 | 7.5 ± 1.2 | 
7 | C=C(C)C1CCC2(C(=O)O)CCC3(C)C(CCC4C5(C)CCC(O)C(C)(C)C5CCC43C)C12.C=C(C)C1CCC2(C(=O)O)CCC3(C)C(CCC4C5(C)CCC(O)C(C)(C)C5CCC43C)C12.CCOC(=O)C(N)CCCCN (centres unmarked) [[LysOEt][BA]2] | good | 368.8 | 157.7 | 4.8 ± 1.3 | cell specificity of action (MCF-10A vs MCF-7) (MCF-10A cells): did not show any cell specificity; IC50 (MCF-10A cells; MCF-10A): 4 µM; surviving fraction (cell clonogenicity) (MCF-7 cells [3]; MCF-7, 12.5 µM, vs non-treated control, Day 10): below 20%; clonogenic efficiency (MCF-7 cells [3]; MCF-7, compared to that of BA (abstract)): 20%; changes in cell numbers and morphology (MCF-7 cells [4]): cell rounding and shrinkage
8 | C=C(C)C1CCC2(C(=O)O)CCC3(C)C(CCC4C5(C)CCC(O)C(C)(C)C5CCC43C)C12.CCOC(=O)C(N)CCCCN (centres unmarked) [[LysOEt][BA]] | very good | 327.3 | 144.0 | 12.9 ± 0.3 | 
9 | C=C(C)C1CCC2(C(=O)O)CCC3(C)C(CCC4C5(C)CCC(O)C(C)(C)C5CCC43C)C12.CCOC(=O)C(N)CCSC (centres unmarked) [[MetOEt][BA]] | weak | 358.6 |  | 7.5 ± 0.3 | TTGonset (onset of the thermal degradation) ([2]; TG, 25–1000 °C, 10 °/min): 125.7 °C; cytotoxicity / IC50 compared with BA (MCF-7 cells [7]; MCF-7, 72 h, MTT): IC50 values lower than that of BA
10 | C=C(C)C1CCC2(C(=O)O)CCC3(C)C(CCC4C5(C)CCC(O)C(C)(C)C5CCC43C)C12.CCOC(=O)C(N)Cc1ccccc1 (centres unmarked) [[PheOEt][BA]] | middle | 360.1 | 133.9 | 12.3 ± 1.7 | cytotoxicity / IC50 compared with BA (MCF-7 cells [8]): cytotoxicity similar to BA
11 | C=C(C)C1CCC2(C(=O)O)CCC3(C)C(CCC4C5(C)CCC(O)C(C)(C)C5CCC43C)C12.CCOC(=O)C1CCCN1 (centres unmarked) [[ProOEt][BA]] | weak | 372.1 | 121.6 | 7.6 ± 1.8 | 
12 | C=C(C)C1CCC2(C(=O)O)CCC3(C)C(CCC4C5(C)CCC(O)C(C)(C)C5CCC43C)C12.CCOC(=O)C(N)CO (centres unmarked) [[SerOEt][BA]] | middle | 364.1 | 118.2 | 12.2 ± 2.6 | 
13 | C=C(C)C1CCC2(C(=O)O)CCC3(C)C(CCC4C5(C)CCC(O)C(C)(C)C5CCC43C)C12.CCOC(=O)C(N)C(C)O (centres unmarked) [[ThrOEt][BA]] | middle | 353.5 | 109.0 | 8.2 ± 2.4 | 
14 | C=C(C)C1CCC2(C(=O)O)CCC3(C)C(CCC4C5(C)CCC(O)C(C)(C)C5CCC43C)C12.CCOC(=O)C(N)Cc1c[nH]c2ccccc12 (centres unmarked) [[TrpOEt][BA]] | middle | 359.8 |  | 13.1 ± 0.4 | cytotoxicity / IC50 compared with BA (MCF-7 cells [8]): cytotoxicity similar to BA
15 | C=C(C)C1CCC2(C(=O)O)CCC3(C)C(CCC4C5(C)CCC(O)C(C)(C)C5CCC43C)C12.CCOC(=O)C(N)Cc1ccc(O)cc1 (centres unmarked) [[TyrOEt][BA]] | weak | 354.4 | 202.3 | 14.2 ± 2.4 | cytotoxicity / IC50 compared with BA (MCF-7 cells [8]): cytotoxicity similar to BA
16 | C=C(C)C1CCC2(C(=O)O)CCC3(C)C(CCC4C5(C)CCC(O)C(C)(C)C5CCC43C)C12.CCOC(=O)C(N)C(C)C (centres unmarked) [[ValOEt][BA]] | weak | 354.0 | 116.8 | 25.7 ± 0.8 | effect on MCF-7 colony formation (MCF-7 cells [3]): did not inhibit MCF-7 colony formation
